# Legend:
# Male ICR mice = experiment: Antagonism of test compounds against general anesthesia induced by general anesthetics (total anesthesia time, loss to recovery of righting reflex); assay type: in vivo
# Protocol: The preparation method: A suitable amount of the compound to be tested was weighed, to which was added a suitable amount of medium and long chain fat emulsion injection with a pipette, and thus a 50 mmol/L solution of the test compound was prepared. After filtering with a 0.22 μm microporous membrane, the solution was immediately used.
# Male ICR mice weighing 25 g±1 g were randomly divided into 8 groups, with 8 mice in each group. […] After maintaining the disappearance of the mouse righting reflex for 30 seconds, the solution of each test compound (50 mg/kg, using medium and long chain fat emulsion injection as solvent) or equal volume of medium and long chain fat emulsion injection was respectively injected, and the total anesthesia time of the mice was observed and recorded. Among them, the total anesthesia time refers to the time from the disappearance of the mouse righting reflex to the recovery of the mouse righting reflex.
# male SD rats = experiment: Antagonism of compounds against general anesthesia maintained by continuous infusion of propofol (anesthesia recovery/awakening time); assay type: in vivo; settings: for The average of awakening time: SD rats
# Protocol: The preparation method was the same as that of Example 1.
# 24 male SD rats with a body weight range of 250-300 g were randomly divided into 4 groups, with 6 rats in each group. Continuous anesthesia induction was performed using propofol (22.11 mg/kg, 1.5×EDO, and then maintained at a rate of 1 mg/(kg min) for 30 min. After drug withdrawal, compound 85 at doses of 10 mg/kg, 20 mg/kg, and 50 mg/kg, as well as 50 mg/kg of the test compound solutions (using medium and long chain fat emulsion injection as solvent) or equal volume of medium and long chain fat emulsion injection was immediately injected, respectively, and the anesthesia recovery time of the […] after stopping the medication was observed and recorded. Among them, the anesthesia recovery time refers to the time from the cessation of propofol infusion to the recovery of the righting reflex in mice.
# [1] = Propofol 22.11 mg/kg (1.5×ED50) i.v. tail vein induction, test compound 50 mg/kg in fat emulsion injected after 30 s loss of righting reflex
# [2] = test drug 50 mg/kg after withdrawal of propofol infusion (1 mg/(kg min) for 30 min)
# [3] = Etomidate 4.48 mg/kg (2×ED50) i.v. tail vein induction, test compound 50 mg/kg in fat emulsion injected after 30 s loss of righting reflex
# [4] = Ketamine induction (dose not given), test compound 50 mg/kg in fat emulsion
# [5] = Remimazolam 57.34 mg/kg (1.5×ED50) i.v. tail vein induction, test compound 50 mg/kg in fat emulsion injected after 30 s loss of righting reflex
SMILES,The average of total anesthesia time (Male ICR mice; [1]) [min],The average of awakening time (male SD rats; [2]) [min],The average of total anesthesia time (Male ICR mice; [3]) [min],The average of total anesthesia time (Male ICR mice; [5]) [min],further results
CC12CCC(C(C(=O)O)C1=O)C2(C)C (stereo not drawn) [Compound 67],2.14 ± 0.32,3.04 ± 0.18,–,–,–
CSC1C(=O)C2(C)CCC1C2(C)C (stereo not drawn) [Compound 68],4.05 ± 0.15,–,2.11 ± 0.54,–,–
CC1(CBr)C2CCC1(CBr)C(=O)C2Br (stereo not drawn) [Compound 70],–,–,–,–,The average of total anesthesia time (Male ICR mice; [4]): 3.49 ± 0.40 min
CC12CCC(CC1=O)C2(C)C (stereo not drawn) [Compound 85],0.47 ± 0.21,0.36 ± 0.98,0.46 ± 0.25,0.45 ± 0.21,"The average of total anesthesia time (Male ICR mice; [4]): 3.01 ± 0.45 min; Reversal of the anesthesia maintenance effect of continuous infusion of propofol (male SD rats; continuous propofol infusion, 10, 20, 50 mg/kg): could dose-dependently shorten the anesthesia recovery time of rats; The average of awakening time (male SD rats; test drug 10 mg/kg after withdrawal of propofol infusion (1 mg/(kg min) for 30 min)): 4.11 ± 1.22 min; The average of awakening time (male SD rats; test drug 20 mg/kg after withdrawal of propofol infusion (1 mg/(kg min) for 30 min)): 3.68 ± 1.12 min"
CC12CCC(C(Br)C1=O)C2(C)C (stereo not drawn) [Compound 86],1.56 ± 0.21,–,–,1.49 ± 0.62,–
CC12CCC(C(I)C1=O)C2(C)C (stereo not drawn) [Compound 87],–,–,1.56 ± 0.45,0.84 ± 0.78,–
CC12CCC(C(=O)C1=O)C2(C)C (stereo not drawn) [Compound 104],–,–,–,–,The average of total anesthesia time (Male ICR mice; [4]): 2.67 ± 0.30 min
CC1(Br)C(=O)C2(C)CCC1C2(C)C (stereo not drawn) [Compound 120],–,–,–,–,The average of total anesthesia time (Male ICR mice; [4]): 3.72 ± 0.24 min
CC12CCC(CC1=O)C2(C)CBr (stereo not drawn) [Compound 130],1.79 ± 0.09,3.41 ± 0.52,–,–,–
CC12CCC(CC1=O)C2(C)CI (stereo not drawn) [Compound 135],–,–,1.72 ± 0.50,–,–
CC12CCC(CC1=O)C2(C)CC(=O)O (stereo not drawn) [Compound 139],–,–,2.64 ± 0.89,1.29 ± 0.63,–
CC12CCC(CC1=O)C2(C)CO (stereo not drawn) [Compound 140],4.13 ± 0.20,–,2.05 ± 0.33,1.16 ± 0.92,–
CC12CCC(CC1=O)C2(C)CBr (stereo not drawn) [Compound 150],1.26 ± 0.17,–,–,–,–
CC12CCC(CC1=O)C2(C)CO (stereo not drawn) [Compound 157],2.52 ± 0.21,–,2.08 ± 0.32,–,–
CCC1(C)C2CCC1(C)C(=O)C2 (stereo not drawn) [Compound 163],1.51 ± 0.51,1.33 ± 0.79,2.17 ± 0.60,0.77 ± 0.02,–
CC12CCC(C(Cl)C1=O)C2(C)C (stereo not drawn) [Compound 168],–,–,–,0.86 ± 0.42,–
CC1(C)[C@H]2CC[C@]1(C)C(=O)C2 [Compound 171],0.42 ± 0.32,0.34 ± 0.89,1.97 ± 0.07,0.73 ± 0.57,The average of total anesthesia time (Male ICR mice; [4]): 3.64 ± 0.89 min
CC12CCC(CC1=O)C2(C)C(Cl)Br (stereo not drawn) [Compound 262],–,–,–,–,The average of total anesthesia time (Male ICR mice; [4]): 3.92 ± 0.83 min
CC1(C)C2CCC1(CCl)C(=O)C2 (stereo not drawn) [Compound 269],2.15 ± 0.98,3.29 ± 0.81,–,1.39 ± 0.45,–

SMILES,The average of total anesthesia time (Male ICR mice; [1]) [min],The average of awakening time (male SD rats; [2]) [min],The average of total anesthesia time (Male ICR mice; [3]) [min],The average of total anesthesia time (Male ICR mice; [5]) [min],further results
CC1(C)C2CCC1(CBr)C(=O)C2 (stereo not drawn) [Compound 270],2.49 ± 0.15,–,2.50 ± 0.99,1.01 ± 0.05,–
CC1(C)C2CCC1(CO)C(=O)C2 (stereo not drawn) [Compound 273],1.43 ± 0.43,–,–,–,–
CC12CCC(Br)(CC1=O)C2(C)C (stereo not drawn) [Compound 561],–,–,2.03 ± 0.61,–,–
CC12CCC(O)(CC1=O)C2(C)C (stereo not drawn) [Compound 563],2.62 ± 0.18,–,–,–,–
CC12CCC(F)(CC1=O)C2(C)C (stereo not drawn) [Compound 565],2.40 ± 0.89,2.58 ± 0.56,0.87 ± 0.93,–,The average of total anesthesia time (Male ICR mice; [4]): 3.46 ± 0.15 min
CC12CCC(CC(=O)O)(CC1=O)C2(C)C (stereo not drawn) [Compound 572],–,–,–,0.85 ± 0.37,–
CC1C(=O)CC2(C(C)C)CC12 (stereo not drawn) [Compound 580],3.12 ± 0.12,2.76 ± 0.20,1.36 ± 0.84,0.69 ± 0.25,–
CC1C(=O)C2(C)CCC1(C)C2 (stereo not drawn) [Compound 581],2.22 ± 0.27,4.66 ± 0.60,1.07 ± 0.32,1.32 ± 0.31,–
CC1CCC(C(C)C)CC1=O (stereo not drawn) [Compound 582],1.39 ± 0.08,0.96 ± 0.23,1.27 ± 0.83,1.49 ± 0.21,–
CC12CC(Br)C(CC1=O)C2(C)C (stereo not drawn) [Compound 608],4.08 ± 0.34,–,–,–,–
CC12CC(Cl)C(CC1=O)C2(C)C (stereo not drawn) [Compound 610],–,2.72 ± 0.36,–,1.32 ± 0.06,–
CC12CC(O)C(CC1=O)C2(C)C (stereo not drawn) [Compound 616],2.70 ± 0.63,–,1.15 ± 0.83,0.94 ± 0.30,–
CC(=O)OC1CC2(C)C(=O)CC1C2(C)C (stereo not drawn) [Compound 626],–,–,2.05 ± 0.54,–,–
CC1(C)C2CC(=O)C1(C)C(Cl)C2 (stereo not drawn) [Compound 631],3.30 ± 0.79,2.85 ± 0.58,–,0.70 ± 0.32,–
CC1(C)C2CC(=O)C1(C)C(Br)C2 (stereo not drawn) [Compound 633],2.04 ± 0.63,2.64 ± 0.19,0.96 ± 0.92,–,The average of total anesthesia time (Male ICR mice; [4]): 3.35 ± 0.90 min
CC1(C)C2CC(=O)C1(C)C(Cl)(Br)C2 (stereo not drawn) [Compound 643],–,1.01 ± 0.29,2.80 ± 0.67,–,–
CC1CC2CC(=O)C1(C)C2(C)C (stereo not drawn) [Compound 661],2.89 ± 0.64,2.39 ± 0.75,–,0.55 ± 0.76,–
[2H]C1C(=O)C2(C)CCC1C2(C)C (stereo not drawn) [Compound 664],–,–,–,–,The average of total anesthesia time (Male ICR mice; [4]): 3.20 ± 0.77 min
